Data as given in ChEMBL document CHEMBL1201862, “PubChem BioAssay data set” (2004).
The source made the active and inactive calls.

Key:
[1] = molecular target: T1, Tyrosine-protein phosphatase non-receptor type 22 (Homo sapiens, UniProt Q9Y2R2); type: functional
T1 sequence (Q9Y2R2 whole entry): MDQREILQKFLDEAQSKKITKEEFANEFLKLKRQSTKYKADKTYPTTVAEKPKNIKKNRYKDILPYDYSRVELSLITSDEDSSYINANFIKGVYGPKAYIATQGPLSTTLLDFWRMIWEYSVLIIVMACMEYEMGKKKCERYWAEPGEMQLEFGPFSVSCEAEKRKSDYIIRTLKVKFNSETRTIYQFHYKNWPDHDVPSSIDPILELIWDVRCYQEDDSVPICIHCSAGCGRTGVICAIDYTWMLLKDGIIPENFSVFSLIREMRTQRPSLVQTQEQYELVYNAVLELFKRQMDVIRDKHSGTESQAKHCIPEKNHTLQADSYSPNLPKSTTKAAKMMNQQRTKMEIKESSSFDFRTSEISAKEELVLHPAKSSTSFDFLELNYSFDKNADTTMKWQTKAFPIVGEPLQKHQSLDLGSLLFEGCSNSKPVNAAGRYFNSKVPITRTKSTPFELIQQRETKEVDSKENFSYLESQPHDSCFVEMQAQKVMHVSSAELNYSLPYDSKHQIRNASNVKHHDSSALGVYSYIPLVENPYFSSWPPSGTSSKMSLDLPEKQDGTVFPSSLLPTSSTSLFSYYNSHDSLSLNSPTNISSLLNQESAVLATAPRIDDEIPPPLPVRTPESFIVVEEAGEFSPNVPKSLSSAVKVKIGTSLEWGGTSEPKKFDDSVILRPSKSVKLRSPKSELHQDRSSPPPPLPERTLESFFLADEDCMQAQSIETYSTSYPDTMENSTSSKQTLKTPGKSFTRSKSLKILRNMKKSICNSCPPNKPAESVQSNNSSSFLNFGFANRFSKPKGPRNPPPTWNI

fMet-Leu-Phe receptor = molecular target: T2, fMet-Leu-Phe receptor (Homo sapiens, UniProt P21462); experiment: formyl peptide receptor binders – dose response (AID 519); type: functional
T2 sequence (P21462 whole entry): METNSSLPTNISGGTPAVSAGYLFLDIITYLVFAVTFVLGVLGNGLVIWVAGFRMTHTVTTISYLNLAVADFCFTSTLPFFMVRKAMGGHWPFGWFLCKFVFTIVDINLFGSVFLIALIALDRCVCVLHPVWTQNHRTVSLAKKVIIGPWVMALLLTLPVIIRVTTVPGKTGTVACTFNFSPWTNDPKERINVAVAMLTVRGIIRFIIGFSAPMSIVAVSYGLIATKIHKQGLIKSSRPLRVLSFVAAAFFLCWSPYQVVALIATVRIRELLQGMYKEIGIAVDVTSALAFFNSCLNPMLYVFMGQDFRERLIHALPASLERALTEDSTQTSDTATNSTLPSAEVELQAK

[2] = molecular target: T1, Tyrosine-protein phosphatase non-receptor type 22; type: functional; remark: listed apart in the source
[3] = molecular target: Tyrosine-protein phosphatase non-receptor type 7 (Homo sapiens, UniProt P35236); type: functional
[4] = viability loss in Vero cells – cytotoxicity control for Vif-APOBEC3G degradation inhibitor project, dose response (AID 1117358); type: functional; details: Vero
[5] = molecular target: Peroxisome proliferator-activated receptor gamma/Nuclear receptor coactivator 2 (Homo sapiens, UniProt P37231); experiment: (§1) TR-FRET dose response biochemical High Throughput Screening assay for agonists of the steroid receptor coactivator 2 (SRC-2) recruitment by the peroxisome proliferator-activated receptor gamma (PPAR gamma): non-selective agonists. [Related pubchem assays: 1297, 1032 ]; type: functional
Major prion protein = Major prion protein (Homo sapiens, UniProt P04156); type: functional, cell-based
[6] = molecular target: Peroxisome proliferator-activated receptor gamma/Nuclear receptor coactivator 3 (Homo sapiens, UniProt P37231); experiment: as §1, with “3 (SRC-3)” for “2 (SRC-2)”, “1301 (Confirmation screen.), 1048 (Primary screen.)]” for “1297, 1032 ]”; type: functional
[7] = molecular target: Mitogen-activated protein kinase 10 (Homo sapiens, UniProt P53779); experiment: Dose response biochemical screening assay for inhibitors of c-Jun N-Terminal Kinase 3 (JNK3). [Related pubchem assays: 746 ]
[8] = molecular target: Peroxisome proliferator-activated receptor gamma/Nuclear receptor coactivator 1 (Homo sapiens, UniProt P37231); experiment: as §1, with “1 (SRC-1)” for “2 (SRC-2)”, “assays (depositor defined):AID1300, AID1808, AID504735, AID631]” for “assays: 1297, 1032 ]”; type: protein assay
Vero = experiment: viability of Vero cells under compound – cytotoxicity control for flavivirus capping enzyme inhibitors (AID 588742); type: functional; details: Chlorocebus sabaeus
[9] = molecular target: T3, Peroxisome proliferator-activated receptor gamma (Homo sapiens, UniProt P37231); experiment: PPARg transcriptional activation, reporter cells – cell-based, luminescence, assay provider, dose response (AID 504447); type: functional
T3 sequence (P37231 whole entry): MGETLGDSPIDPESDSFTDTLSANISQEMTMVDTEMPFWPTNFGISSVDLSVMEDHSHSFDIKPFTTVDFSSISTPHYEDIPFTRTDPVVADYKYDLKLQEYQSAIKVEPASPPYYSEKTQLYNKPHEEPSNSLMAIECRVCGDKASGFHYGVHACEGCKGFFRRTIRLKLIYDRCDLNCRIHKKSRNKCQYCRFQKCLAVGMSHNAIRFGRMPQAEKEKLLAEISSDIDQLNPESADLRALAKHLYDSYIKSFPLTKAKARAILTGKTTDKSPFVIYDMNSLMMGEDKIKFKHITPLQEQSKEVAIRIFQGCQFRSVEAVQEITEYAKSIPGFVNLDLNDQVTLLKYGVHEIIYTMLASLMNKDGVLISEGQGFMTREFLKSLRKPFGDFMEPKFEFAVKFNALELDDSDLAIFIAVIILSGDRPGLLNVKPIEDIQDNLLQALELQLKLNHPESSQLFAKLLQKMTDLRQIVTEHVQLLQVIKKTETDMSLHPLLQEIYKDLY

[10] = CCR5-tropic HIV-1 fusion blockers – cell-based, CCR5-tropic Env, dose response (AID 2279); type: functional
[11] = molecular target: T3, Peroxisome proliferator-activated receptor gamma; experiment: competitive ligand displacement at PPARg – biochemical, fluorescence polarization, PolarScreen, PPARg partial agonist project, dose response (AID 504453)
[12] = Luminescence Cell-Based Dose Retest to Confirm Inhibitors of Cancer Stem Cells. [Related pubchem assays (depositor defined):AID2717, AID2721]; type: functional; details: Homo sapiens
[13] = molecular target: Peroxisome proliferator-activated receptor alpha (Homo sapiens, UniProt Q07869); experiment: Late stage assay provider counterscreen for partial agonists of the peroxisome proliferator-activated receptor gamma (PPARg): Luminescence-based cell-based dose response assay for partial agonists of the peroxisome proliferator-activated receptor alpha (PPARA). [Related pubchem assays (depositor defined):AID1051, AID1300, AID1319, AID1679, AID1808, AID504446, AID504447, AID504452, AID504453, AID631]; type: functional
[14] = molecular target: G-protein coupled receptor 55 (Homo sapiens, UniProt Q9Y2T6); experiment: inhibition of LPI-stimulated GPR55 beta-arrestin translocation – imaging, U2OS, beta-arrestin-GFP, LPI agonist, primary screen (AID 2013); type: functional;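 also: antagonist potency measured as reduced agonist-driven arrestin aggregation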
[15] = molecular target: T3, Peroxisome proliferator-activated receptor gamma; experiment: competitive ligand displacement at PPARg – biochemical, TR-FRET, LanthaScreen, PPARg partial agonist project, dose response (AID 504446)
[16] = molecular target: Sphingosine 1-phosphate receptor 1 (Homo sapiens, UniProt P21453); experiment: Fluorescence-based counterscreen assay for S1P4 agonists: Cell-based dose response high throughput screening assay to identify agonists of the Sphingosine 1-Phosphate Receptor 1 (S1P1). [Related pubchem assays (depositor defined):AID1509, AID1523, AID1801, AID463107, AID463118, AID463119, AID463122, AID463123, AID463129, AID463225, AID504400, AID504460]; type: functional
[17] = molecular target: T4, Sphingosine 1-phosphate receptor 4 (Homo sapiens, UniProt O95977); experiment: Fluorescence dose response cell-based high throughput screening assay for agonists of the Sphingosine 1-Phosphate Receptor 4 (S1P4). [Related pubchem assays: 1509 (Primary screen.), 1523 (Confirmation screen in triplicates.)]; type: functional
T4 sequence (O95977 whole entry): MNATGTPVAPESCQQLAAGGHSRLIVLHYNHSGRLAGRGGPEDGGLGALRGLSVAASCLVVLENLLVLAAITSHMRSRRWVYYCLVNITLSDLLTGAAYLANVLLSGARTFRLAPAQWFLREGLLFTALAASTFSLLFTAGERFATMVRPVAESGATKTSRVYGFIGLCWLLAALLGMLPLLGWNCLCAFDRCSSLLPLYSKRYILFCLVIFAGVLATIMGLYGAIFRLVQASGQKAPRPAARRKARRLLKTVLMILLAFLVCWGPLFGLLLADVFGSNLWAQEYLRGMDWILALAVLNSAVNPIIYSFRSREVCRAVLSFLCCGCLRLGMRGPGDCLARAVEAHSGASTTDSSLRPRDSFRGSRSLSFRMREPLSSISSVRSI

[18] = molecular target: Kappa-type opioid receptor (Homo sapiens, UniProt P41145); experiment: SAR analysis of small molecule agonists of the kappa opioid receptor via a luminescent beta-arrestin assay - Set 3. [Related pubchem assays (depositor defined):AID1777, AID1785, AID1786, AID1966, AID2133, AID2136, AID2284, AID2500]; type: functional
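For AC50 in this document: cells exposed to compound for roughly 70 hours or longer before luminescence read.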

## O=C(O)CCCNc1cc(N2CCC3(CC2)OCCO3)c2noc3c2c1C(=O)c1ccccc1-3
[1]
  IC50: 61.9 µM (active)
fMet-Leu-Phe receptor
  Ki: 34.1 µM (inactive)
[2]
  IC50: 68.9 µM (active)
[3]
  IC50: 69.3 µM (active)
[4]
  CC50: > 40 µM (active)

## CC(Sc1ccc2ccccc2n1)C(=O)O (configuration not stated)
[5]
  EC50: > 79.4 µM (not active)
Major prion protein
  IC50: 1.56 µM (active)
[6]
  EC50: > 79.4 µM (not active)
[7]
  IC50: 4.87 µM (active)
[8]
  EC50: > 79.4 µM (inactive)
cells
  IC50: > 138 µM (inactive)

## COc1ccc(-c2nn(-c3ccccc3)cc2/C=C2/SC(=S)N(CCC(=O)O)C2=O)c(C)c1
Vero
  CC50: > 40 µM (active)
[9]
  EC50: 0.283 µM (active)
[10]
  IC50: 47.4 µM (active)
[11]
  IC50: 0.152 µM (active)
[12]
  AC50: 9.19 µM (active)
[13]
  EC50: > 3 µM (inactive)
[14]
  IC50: 0.665 µM (active)
[15]
  IC50: 0.194 µM (active)

## Clc1ccc(/C=C\c2[nH]ccc3c4ccccc4nc2-3)cc1
[16]
  EC50: 2.18 µM (active)
[17]
  EC50: 4.41 µM (active)

## FC(F)(F)c1cc(CSc2nnc(-c3ccccn3)n2Cc2ccccc2Cl)ccc1Cl
[18]
  EC50: 4.3 µM (active)
